The subject of experiment [1] is P. multocida. In words: MIC by tube dilution method against P. multocida (Example 3). The class given is cell-based. The note with it: 24 hours, 37° C. How it is done: (§1) In vitro determination of the potency of Isopropyl BM123γ compared with oxytetracycline and gentamicin in selected bacterial isolates by a tube dilution method.
(§2) Serial two-fold dilutions of antibacterial agent are prepared in trypticase soy broth. To each tube containing 5 ml of broth, is added 0.1 ml of 10^-3 dilution of bacterial inoculum, adjusted prior to dilution of 44 percent transmission at 645 m,u. An inoculated broth, containing no drug is included as growth for each strain tested.

The test system of experiment [2] is P. multocida. Nature of the experiment: In vitro minimal inhibitory concentration against P. multocida isolates (Example 1). Format: cell-based. How it is done:
(§3) Minimal inhibitory concentrations (MIC) of eight Pasteurella isolates are also determined.

The test system of experiment [3] is P. hemolytica. Nature of the experiment: MIC by tube dilution method against P. hemolytica (Example 3). The class given is cell-based. To be noted: 24 hours, 37° C. How it is done: as §1, §2
In experiment [4] the test system is P. hemolytica. In words: In vitro minimal inhibitory concentration against P. hemolytica isolates (Example 1). The class given is cell-based. As for the experimental part: as §3
Experiment [5] has as its system shipping fever. Nature of the experiment: Efficacy in depressing the body temperature of calves having shipping fever (Example 1). The class given is in vivo. The note with it: 13 mg/kg i.m., three or four consecutive days. From the text:
In vivo activity of BM123γ-hydrochloride and of isopropyl BM123γ for the control of shipping fever in calves.
Two hundred sick calves, with elevated temperatures and clinical signs of shipping fever are chosen for the experiment. The animals are allotted to four groups of 50 calves each. One group serves as nonmedicated, infected controls receiving placebos, the other groups receive intramuscular injections of the respective drugs for three or four consecutive days at the levels indicated in Table 1. […]

The test system of experiment [6] is shipping fever. Nature of the experiment: Control of shipping fever in young cattle: mortality and days to return to normal temperature (Example 2). The class given is in vivo, calves. The note with it: 11.0 mg/kg i.m., 3 daily injections. From the text:
In vivo activity of Isopropyl BM123γ for the control of shipping fever in young cattle as compared to oxytetracycline.
Calves weighing 90.6 to 181.2 Kg received at the feedlot are processed as is normally done, except no antibacterial treatment is given. Processing includes vaccination with Infectious Bovine Rhinotracheitis (Bovine virus Diarrhea) Leptospirosis vaccine, administration of a Clostridium novyi, septicum, sordelli, chauvei bacterin, levamisole (1/2 oblet), i.m. administration of 3 ml of a vitamin A, D and E formulation, a pour-on formulation of 0,0-dimethyl-0-(2,4,5-trichlorophenyl) ester of phosphorothioic acid for the control of grubs and lice, and one DES (diethylstilbestrol) implant in an ear. In addition--and at the same time--the calves are branded, ear tagged, dehorned and castrated where applicable.
One to two days after arrival and processing, sick calves are removed from the holding pens and those with temperatures of 40.0° C. or higher and showing symptoms of respiratory disease are selected for the study.
A total of 300 calves are randomly allotted to four groups of 75 calves each. One group serves as infected unmedicated controls receiving a "blank" solution, the others receive intramuscularly between hip and pin bones, for a total of 3 daily injections of:
a. 11 mg/kg body weight of oxytetracycline, the maximum recommended dose;
b. 0.5 mg/kg body weight of Isopropyl BM123γ; or
c. 1.0 mg/kg body weight of Isopropyl BM123γ.
The preparation and composition of injectables for "b" and "c" are described in Example 5 below.
Temperatures are recorded daily until two successive readings of 39.7° C. or lower are recorded, at which time calves are moved from the "sick" pen to the "recovered" pen. Although some of the "recovered" calves continue to show symptoms of disease, the criterion of body temperature is selected since it is completely objective.
One hundred fifty-four calves are treated the first day, fifty the second and 96 the third day. Following treatment, each animal is observed and its temperature recorded for a total of 14 consecutive days. Each animal which dies is necropsied and duplicate samples of lung and mediastinal lymph node are taken for microbiological examination. Necropsy examinations confirm the presence of severe pneumonia in most animals which died.
These calves died early in the study from conditions which the treatments should not have been expected to control.

For experiment [7], the system named is shipping fever. In words: Gross necropsy findings of sacrificed treated calves. The class given is in vivo. To be noted: Calf No. 4 (d), 4 days administered.
The subject of the next experiment is Pasteurella. In words: Bacterial isolation from tissues of sacrificed treated calves. Format: in vivo. The note with it: Calf No. 4, 4 days administered. From the text:
At the end of the experiment, six calves are sacrificed, and animal tissues examined for aerobic and anaerobic bacteria. Pasteurella are isolated and identified from three of the sacrificed calves. No anaerobes are recovered from any tissues.

For the compound Gentamicin, the MIC in the experiment on P. multocida [1] (isolate No. 1) was 4.0 µg/mL; in the experiment with P. multocida [1] (isolate No. 2) it was 4.0 µg/mL; with P. multocida [1] (isolate No. 3), 8.0 µg/mL; with P. multocida [1] (isolate No. 4), 4.0 µg/mL; against P. multocida [1] (isolate No. 5), 4.0 µg/mL; in the experiment with P. multocida [1] (isolate No. 6), 4.0 µg/mL. Besides, the MIC in the experiment on P. multocida [1] (isolate No. 7) amounted to 4.0 µg/mL; in the experiment on P. multocida [2] (isolate No. 6), 2 µg/mL; in the experiment on P. multocida [2] (isolate No. 7), 2 µg/mL; against P. multocida [2] (isolate No. 8), 2 µg/mL; against P. hemolytica [3] (isolate No. 1), 8.0 µg/mL; in the experiment with P. hemolytica [3] (isolate No. 2), 8.0 µg/mL. In addition, the MIC with P. hemolytica [3] (isolate No. 3) was found to be 4.0 µg/mL; in the experiment on P. hemolytica [3] (isolate No. 4) it was 8.0 µg/mL; in the experiment on P. hemolytica [3] (isolate No. 5) it was 4.0 µg/mL; against P. hemolytica [4] (isolate No. 1) it was 4 µg/mL; in the experiment on P. hemolytica [4] (isolate No. 2), 8 µg/mL; against P. hemolytica [4] (isolate No. 3) it was 2 µg/mL. Besides, the MIC against P. hemolytica [4] (isolate No. 4) and in the experiment on P. hemolytica [4] (isolate No. 5) was 4 µg/mL in each case.
`CN(C)C1C(=O)C(C(N)=O)=C(O)C2(O)C(=O)C3=C(O)c4c(O)cccc4C(C)(O)C3C(O)C12` (stereo not drawn) [Oxytetracycline]: in the experiment on shipping fever [5], the “Calves below 39.4° C./total, 2 days after last Injection” value was 22/38 and the “Percent of calves below 39.4° C., 2 days after last Injection” value is given as 58%. The “Mean Temperature 2 days after last Injection” value in the experiment with shipping fever [5] (mean initial 40.7) came to 39.4 °C. In addition, in the experiment with shipping fever [6], the “Mortality, Percent” value is reported as 5.6% and the “average number of days to return to normal temperature” value turned out to be 5.33 days. In addition, the “Mortality, No. of Animals” value in the experiment with shipping fever [6] (group of 75) is 4 No. of Animals. For the same compound, the “Days to Normal, No. of Animals” value with shipping fever [6] (normal = two successive readings of 39.7° C. or lower) is reported as 72 No. of Animals. In the experiment on shipping fever [7], the “Lung findings at necropsy” value was “The lungs were consolidated and had miliary abscesses in 60% of their volume”. In addition, in the experiment on Pasteurella, the Bacteria isolated entry is listed as “P. Hemolytica + P. multocida”. Further, in the experiment with Pasteurella (P. Hemolytica + P. multocida), the Total cfu/g is reported as 9.1 × 10^6 cfu/g.

(Values after patent US4170645A, “Antibacterial agent BM123γ, salts and alkyl derivatives thereof for the control of shipping fever in cattle” (American Cyanamid Company, priority 1978, dated 1979).)
